# Read-outs that look alike come from different tables or passages of the source. Where a SMILES comes first, the peptide text is derived from it.
# Columns and labels:
# [1] = test system: A-172 cells; experiment: WST-1 cell viability, A-172 glioblastoma cells; assay type: cell-based; conditions: for IC50: read-out: Absolute IC50
# Protocol: (§1) All commercial cell lines were purchased at ATCC (LGC Standards SARL, France). Cells were seeded in 96-well plates according to their optimal seeding density, varying between 5.000 and 10.000 cells/well. After attachment overnight, 10-point serial titrations (1:5) were prepared in their equivalent complete media as recommended by ATCC, starting from the 10 mM stock solutions. For doxorubicin comprising prodrugs dilutions started from 100 μM, while for the parent compound doxorubicin dilutions started at 10 μM. […] Seventy-two hours later, compounds were removed together with the supernatants and cells were washed once with PBS to remove excess drugs.
# (§2) The WST-1 assay for cell proliferation and viability (Roche, Switzerland) was performed according to manufacturer's protocol. Absorbances were measured at 4 hrs using a Perkin Elmer Ensight multiplate reader, equipped with Kaleido 2.0 software (Perkin Elmer, USA). Cell viability was expressed as a percentage compared to non-treated cells. Absolute IC50 values were extrapolated from a non-linear fitting following the Sigmoidal-4PL regression method using Graphpad Prism 7.0. Likewise, maximal efficacy was determined as 100% minus the cell viability determined when cells are incubated in the presence of a compound. For instance, if 20% of the cells survive incubation in the presence of a compound, then the maximal efficacy of that compound is 100%-20%=80%.
# (§3) Selectivity indices (SI) were defined as the ratio of the concentration of drug required to kill 50% of the cells in normal (control, non-cancer) cells, divided by the concentration required to exert the same efficacy in tumor cells: SI=IC50 (control cell)/IC50 (cancer cell), or SI=^HME-1IC50/cancer IC50.
# [2] = test system: MDA-MB-231 cells; experiment: WST-1 cell viability, MDA-MB-231 triple negative breast cancer cells; assay type: cell-based; conditions: for IC50: read-out: Absolute IC50
# Protocol: as §1, §2, §3
# [3] = test system: HME-1 cells; experiment: WST-1 cell viability, normal HME-1 cells; assay type: cell-based, human; conditions: for IC50: read-out: Absolute IC50
# Protocol: as §1, §2, §3
# [4] = test system: DU145 cells; experiment: WST-1 cell viability, DU145 prostate cancer cells; assay type: cell-based
# Protocol: as §1, §2, §3
# [5] = test system: A2058 cells; experiment: WST-1 cell viability, A2058 melanoma cells; assay type: cell-based; conditions: for IC50: read-out: Absolute IC50
# Protocol: as §1, §2, §3
# [6] = test system: hiPSC-derived astrocytes (iAstro); experiment: WST-1 cell viability, hiPSC-derived astrocytes (iAstro); assay type: cell-based, human; conditions: iAstro normal astrocytes, 72 hrs
# Protocol: as §1, §2, §3
# hiPSC-derived astrocytes were purchased from Tempo Biosciences (iAstro™). Prior to use, six-well plates were coated with 1 ml GFR Matrigel (1:100˜0.1 mg/ml, Corning #356231) and allowed to polymerize at 37° C. overnight. Three days before assaying, cells were defrosted and seeded onto the GFR Matrigel in iAstro medium, and allowed to recover from defrosting for 48 hrs. The recovery was aided using RevitaCell™ Supplement during the first 24 hrs. After morphological inspection, cells were transferred to 96-well plates and 4-well microscopy vessels (Millipore), coated with Poly-L-lysine (50 μg/ml, P2533, Sigma Aldrich) and mouse laminin (4 ng/ml, L2020, Sigma Aldrich), using StemPro Accutase reagent (Invitrogen). Following overnight recovery, iAstro's were exposed to the same treatment protocol described above.
# [7] = test system: MIA PaCa-2 cells; experiment: WST-1 cell viability, MIA PaCa-2 pancreatic cancer cells; assay type: cell-based
# Protocol: as §1, §2, §3
# [8] = test system: A2780 Cp cells; experiment: WST-1 cell viability, A2780 CpR (cisplatin resistant) ovarian cancer cells; assay type: cell-based
# Protocol: as §1, §2, §3
# [9] = test system: Human umbilical vein endothelial cells (HUVEC); experiment: WST-1 cell viability, normal HUVEC cells; assay type: cell-based; conditions: 72 hrs
# Protocol: as §1, §2, §3
# [10] = test system: NCI-H292 cells; experiment: WST-1 cell viability, NCI-H292 lung cancer cells; assay type: cell-based
# Protocol: as §1, §2, §3
# [11] = test system: U-87 MG cells; experiment: WST-1 cell viability, U-87 MG glioblastoma cells; assay type: cell-based; conditions: for IC50: read-out: Absolute IC50
# Protocol: as §1, §2, §3
# [12] = WST-1 (Table 4), read-out: Absolute IC50
structure (smiles),measurement,setting,value
"COc1cccc2c1C(=O)c1c(O)c3c(c(O)c1C2=O)C[C@@](O)(C(=O)CO)C[C@@H]3O[C@H]1C[C@H](NC(=O)[C@@H]2CCCN2C(=O)[C@H](CC(C)C)NC(=O)[C@H](CC(C)C)NC(=O)[C@H](C)NC(=O)CP(=O)(O)O)[C@H](O)[C@H](C)O1 [PhAc-ALLP-Dox, PhAc-ALLP-Doxorubicin] (HELM PEPTIDE1{[O=C(CP(=O)(O)O)[*:2]].A.L.L.P.[COc1cccc2c1C(=O)c1c(O)c3c(c(O)c1C2=O)C[C@@](O)(C(=O)CO)C[C@@H]3O[C@H]1C[C@H](N[*:1])[C@H](O)[C@H](C)O1]}$$$$V2.0)",SI = HME-1 IC50/cancer IC50,[1]; A-172 (GBM) vs HME-1 (Table 3),30.54
same,SI = HUVEC IC50 / cancer IC50,"[1]; A-172 (GBM), * towards HUVEC cells (Table 6)",*34.4
same,SI = iAstro IC50 / cancer IC50,"[1]; A-172 (GBM), ** towards hiPSCs (iAstro) (Table 6)",**15.8
same,SI = normal IC50 / cancer IC50,"[1]; A-172 (GBM), selectivity towards HME-1 cells (Table 6)",30.5
same,IC50,"[1]; A-172 (GBM), 72 hrs, WST-1 (Table 1)",1.21 µM
same,"Maximal efficacy, cytotoxicity (%) at 100 μM","[1]; A-172 (GBM), 72 hrs, WST-1 (Table 2)",98.08%
same,IC50,"[1]; A-172 (GBM), 72 hrs, WST-1 (Table 4)",1.29 µM
same,Maximal efficacy,"[1]; A-172 (GBM), 72 hrs, WST-1 (Table 5)",80.9%
same,"Selectivity index towards hiPSC-derived astrocytes, GBM","[1]; GBM indication as a whole (A-172 and U-87 MG), vs iAstro",14.9±0.8
same,SI = HME-1 IC50/cancer IC50,[2]; MDA-MB-231 (TNBC) vs HME-1 (Table 3),3.85
same,SI = HUVEC IC50 / cancer IC50,"[2]; MDA-MB-231 (TNBC), * towards HUVEC cells (Table 6)",*23.6
same,SI = normal IC50 / cancer IC50,"[2]; MDA-MB-231 (TNBC), selectivity towards HME-1 cells (Table 6)",20.9
same,IC50,"[2]; MDA-MB-231 (TNBC), 72 hrs, WST-1 (Table 1)",9.57 µM
same,"Maximal efficacy, cytotoxicity (%) at 100 μM","[2]; MDA-MB-231 (TNBC), 72 hrs, WST-1 (Table 2)",71.20%
same,IC50,"[2]; MDA-MB-231 (TNBC), 72 hrs, WST-1 (Table 4)",9.57 µM
same,Maximal efficacy,"[2]; MDA-MB-231 (TNBC), 72 hrs, WST-1 (Table 5)",71.2%
same,SI = HME-1 IC50/cancer IC50,[3]; HME-1 normal cells against themselves (Table 3),1.00
same,IC50,"[3]; HME-1 normal cells, 72 hrs continuous drug exposure, WST-1 (Table 1)",36.9 µM
same,IC50,"[3]; HME-1 normal cells, 72 hrs, WST-1 (Table 4)",36.9 µM
same,Maximal efficacy,"[3]; HME-1 normal cells, 72 hrs, WST-1, cytotoxicity at highest concentration (Table 5)",59.5%
same,SI = HME-1 IC50/cancer IC50,[4]; DU145 (PrC) vs HME-1 (Table 3),5.25
same,IC50,"[4]; DU145 (PrC), 72 hrs, WST-1 (Table 1), read-out: Absolute IC50",7.02 µM
same,"Maximal efficacy, cytotoxicity (%) at 100 μM","[4]; DU145 (PrC), 72 hrs, WST-1 (Table 2)",79.25%
same,SI = HME-1 IC50/cancer IC50,[5]; A2058 (Melanoma) vs HME-1 (Table 3),298.19
same,SI = HUVEC IC50 / cancer IC50,"[5]; A2058 (Melanoma), * towards HUVEC cells (Table 6)",*336.1
same,SI = normal IC50 / cancer IC50,"[5]; A2058 (Melanoma), selectivity towards HME-1 cells (Table 6)",298.2
same,IC50,"[5]; A2058 (Melanoma), 72 hrs, WST-1 (Table 1)",0.12 µM
same,"Maximal efficacy, cytotoxicity (%) at 100 μM","[5]; A2058 (Melanoma), 72 hrs, WST-1 (Table 2)",97.56%
same,IC50,"[5]; A2058 (Melanoma), 72 hrs, WST-1 (Table 4)",0.12 µM
same,Maximal efficacy,"[5]; A2058 (Melanoma), 72 hrs, WST-1 (Table 5)",97.6%
same,IC50,[6]; [12],20.3 µM
same,Maximal efficacy,[6]; WST-1 (Table 5),68.5%
same,SI = HME-1 IC50/cancer IC50,[7]; MIA PaCa-2 (PaC) vs HME-1 (Table 3),0.79
same,IC50,"[7]; MIA PaCa-2 (PaC), 72 hrs, WST-1 (Table 1), read-out: Absolute IC50",46.8 µM
same,"Maximal efficacy, cytotoxicity (%) at 100 μM","[7]; MIA PaCa-2 (PaC), 72 hrs, WST-1 (Table 2)",65.41%
same,SI = HME-1 IC50/cancer IC50,[8]; A2780 Cp (OvC) vs HME-1 (Table 3),257.22
same,"Maximal efficacy, cytotoxicity (%) at 100 μM","[8]; A2780 Cp (OvC), 72 hrs, WST-1 (Table 2)",85.27%
same,IC50,"[8]; A2780 Cp (OvC, cisplatin resistant), 72 hrs, WST-1 (Table 1), read-out: Absolute IC50",0.14 µM
same,IC50,[9]; [12],41.6 µM
same,Maximal efficacy,[9]; WST-1 (Table 5),53.1%
same,SI = HME-1 IC50/cancer IC50,[10]; NCI-H292 (NSCLC) vs HME-1 (Table 3),6.30
same,IC50,"[10]; NCI-H292 (NSCLC), 72 hrs, WST-1 (Table 1), read-out: Absolute IC50",5.86 µM
same,"Maximal efficacy, cytotoxicity (%) at 100 μM","[10]; NCI-H292 (NSCLC), 72 hrs, WST-1 (Table 2)",55.15%
same,SI = HME-1 IC50/cancer IC50,[11]; U-87 MG (GBM) vs HME-1 (Table 3),128.53
same,SI = HUVEC IC50 / cancer IC50,"[11]; U-87 MG (GBM), * towards HUVEC cells (Table 6)",*144.9
same,SI = iAstro IC50 / cancer IC50,"[11]; U-87 MG (GBM), ** towards hiPSCs (iAstro) (Table 6)",**14.1
same,SI = normal IC50 / cancer IC50,"[11]; U-87 MG (GBM), selectivity towards HME-1 cells (Table 6)",128.5
same,IC50,"[11]; U-87 MG (GBM), 72 hrs, WST-1 (Table 1)",0.29 µM
same,"Maximal efficacy, cytotoxicity (%) at 100 μM","[11]; U-87 MG (GBM), 72 hrs, WST-1 (Table 2)",94.35%
same,IC50,"[11]; U-87 MG (GBM), 72 hrs, WST-1 (Table 4)",1.44 µM
same,Maximal efficacy,"[11]; U-87 MG (GBM), 72 hrs, WST-1 (Table 5)",97.1%

# From US20240299562A1 (priority 2020, published 2024)
